According to patent publication US20060069132A1, “Azolecarboxamide herbicides” (priority 2004, published 2006):

How the values were obtained:
Surinam grass = assay: Test E pre-/postemergence herbicide test; assay type: in vivo, Urochloa decumbens
Source text: (§1) Seeds of plant species selected from bipinnate beggarticks (Bidens bipinnata L.), hairy beggarticks (Bidens radiata Thuill.), bermudagrass (Cynodon dactylon (L.) Pers.), Surinam grass (Urochloa decumbens (Staph) R. D. Webster, previously named Brachiaria decumbens Stapf), large crabgrass (Digitaria sanguinalis (L.) Scop.), green foxtail (Setaria viridis (L.) P. Beauv.), goosegrass (Eleusine indica (L.) Gaertn.), johnsongrass (Sorghum halepense (L.) Pers.), kochia (Kochia scoparia (L.) Schrad.), pitted morningglory (Ipomoea lacunosa L.), purple nutsedge (Cyperus rotundus L.), common ragweed (Ambrosia elatior L.), mustard (Brassica nigra (L.) W. D. J. Koch), guineagrass (Panicum maximum Jacq.), dallisgrass (Paspalum dilatatum Poir.), barnyardgrass (Echinochloa crus-galli (L). P. Beauv.), southern sandbur (Cenchrus echinatus L.), common sowthistle (Sonchus oleraceous L.), prickly sida (Sida spinosa L.), Italian ryegrass (Lolium multiflorum Lam.), common purslane (Portulaca oleracea L.), broadleaf signalgrass (Brachiaria platyphylla (Griseb.) Nash), common groundsel (Senecio vulgaris L.), common chickweed (Stellaria media (L.) Vill/Cyr.), tropical spiderwort (Commelina benghalensis L.), annual bluegrass (Poa annua L.), downy bromegrass (Bromus tectorum L.), itchgrass (Rottboellia cochinchinensis (L.) L.f.), quackgrass (Elytrigia repens (L.) Nevski), Canada horseweed (Erigeron Canadensis L.), field bindweed (Convolvulus arvensis L.), spotted spurge (Euphorbia maculata L.), common mallow (Malva sylvestris (=s silvestris) L.), and Russian thistle (Salsola kali L. ssp. Ruthenica (Iljin) Soo) were planted and treated preemergence with test chemicals formulated in a non-phytotoxic solvent mixture which included a surfactant.
(§2) At the same time, plants selected from these weed species were treated with postemergence applications of some of the test chemicals formulated in the same manner. Plants ranged in height from 2 to 18 cm (1- to 4-leaf stage) for postemergence treatments. Treated plants and controls were maintained in a greenhouse for 12 to 14 days, after which time all species were compared to controls and visually evaluated. Plant response ratings, summarized in Table E, are based on a scale of 0 to 100 where 0 is no effect and 100 is complete control. A dash (-) response means no test result.

dallisgrass = assay: Test E pre-/postemergence herbicide test; assay type: in vivo, Paspalum dilatatum
Source text: as §1, §2

common groundsel = assay: Test E pre-/postemergence herbicide test; assay type: in vivo, Senecio vulgaris
Source text: as §1, §2

common ragweed = assay: Test E pre-/postemergence herbicide test; assay type: in vivo, Ambrosia elatior
Source text: as §1, §2

common mallow = assay: Test E pre-/postemergence herbicide test; assay type: in vivo, Malva sylvestris
Source text: as §1, §2

common sowthistle = assay: Test E pre-/postemergence herbicide test; assay type: in vivo, Sonchus oleraceous
Source text: as §1, §2

pitted morningglory = assay: Test E pre-/postemergence herbicide test; assay type: in vivo, Ipomoea lacunosa
Source text: as §1, §2

bermudagrass = assay: Test E pre-/postemergence herbicide test; assay type: in vivo, Cynodon dactylon
Source text: as §1, §2

Italian ryegrass = assay: Test C postemergence herbicide test; assay type: in vivo, Lolium multiflorum
In short: (§3)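 Postemergence sprays were applied to plants 2 to 18 cm tall (1- to 4-leaf stage); in the flooded paddy test, barnyardgrass was grown to the 2-leaf stage. After 12 to 14 days in a greenhouse, injury was visually rated against untreated controls on a 0–100 scale (100 = complete control).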

winter barley = assay: Test C postemergence herbicide test; assay type: in vivo, Hordeum vulgare
In short: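 Postemergence sprays applied to plants 2 to 18 cm tall (1- to 4-leaf stage); paddy species grown to 2-leaf stage under flooding. After 12 to 14 days in greenhouse, visual rating versus untreated controls on 0–100 scale (0 no effect, 100 complete control).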

green foxtail = assay: Test C postemergence herbicide test; assay type: in vivo, Setaria viridis
In short: as §3

wild oat = assay: Test C postemergence herbicide test; assay type: in vivo, Avenafatua
In short: as §3

windgrass = assay: Test C postemergence herbicide test; assay type: in vivo, Apera spica-venti
In short: as §3

canarygrass = assay: Test C postemergence herbicide test; assay type: in vivo, Phalaris minor
In short: as §3

[1] = Postemergence, 500 g ai/ha, scale 0 to 100
[2] = Postemergence, 250 g ai/ha, scale 0 to 100
[3] = Preemergence, 62 g ai/ha, scale 0 to 100
[4] = Preemergence, 125 g ai/ha, scale 0 to 100
[5] = Preemergence, 500 g ai/ha, scale 0 (no effect) to 100 (complete control)
[6] = postemergence, 125 g ai/ha, scale 0 to 100
[7] = postemergence, 62 g ai/ha, scale 0 to 100
[8] = Preemergence, 250 g ai/ha, scale 0 (no effect) to 100 (complete control)
[9] = Postemergence, 250 g ai/ha, scale 0 to 100, 0 no effect, 100 complete control
[10] = postemergence, 31 g ai/ha, scale 0 to 100

## CCn1nc(C(C)(C)C)cc1C(=O)Nc1cc(C(=O)N(C)C)ccn1 [Compound 156, 2-[[[3-(1,1-dimethylethyl)-1-ethyl-1H-pyrazol-5-yl]carbonyl]amino]-N,N-dimethyl-4-pyridinecarboxamide]
Surinam grass; [1]
  Plant response rating, Surinam Grass: 100
Surinam grass; [2]
  Plant response rating, Surinam Grass: 98
Surinam grass; [3]
  Plant response rating, Surinam Grass: 50
Surinam grass; [4]
  Plant response rating, Surinam Grass: 75
Surinam grass; [5]
  Plant response rating, Surinam Grass: 95
Surinam grass; [6]
  Plant response rating, Surinam Grass: 95
Surinam grass; [7]
  Plant response rating, Surinam Grass: 80
dallisgrass; [1]
  Plant response rating, Dallisgrass: 90
dallisgrass; [2]
  Plant response rating, Dallisgrass: 90
dallisgrass; [3]
  Plant response rating, Dallisgrass: 90
dallisgrass; [4]
  Plant response rating, Dallisgrass: 95
dallisgrass; [8]
  Plant response rating, Dallisgrass: 100
dallisgrass; [5]
  Plant response rating, Dallisgrass: 100
dallisgrass; [6]
  Plant response rating, Dallisgrass: 85
dallisgrass; [7]
  Plant response rating, Dallisgrass: 75
Common groundsel; [1]
  Plant response rating, Groundsel: 100
Common groundsel; [2]
  Plant response rating, Groundsel: 100
Common groundsel; [3]
  Plant response rating, Groundsel: 100
Common groundsel; [4]
  Plant response rating, Groundsel: 100
Common groundsel; [8]
  Plant response rating, Groundsel: 100
Common groundsel; [5]
  Plant response rating, Groundsel: 100
Common groundsel; [6]
  Plant response rating, Groundsel: 100
Common groundsel; [7]
  Plant response rating, Groundsel: 80
Common ragweed; [1]
  Plant response rating, Ragweed: 98
Common ragweed; [2]
  Plant response rating, Ragweed: 90
Common ragweed; [3]
  Plant response rating, Ragweed: 50
Common ragweed; [4]
  Plant response rating, Ragweed: 90
Common ragweed; [8]
  Plant response rating, Ragweed: 95
Common ragweed; [5]
  Plant response rating, Ragweed: 100
Common ragweed; [6]
  Plant response rating, Ragweed: 90
Common ragweed; [7]
  Plant response rating, Ragweed: 80
Common mallow; [1]
  Plant response rating, Mallow: 100
Common mallow; [2]
  Plant response rating, Mallow: 95
Common mallow; [3]
  Plant response rating, Mallow: 70
Common mallow; [4]
  Plant response rating, Mallow: 100
Common mallow; [8]
  Plant response rating, Mallow: 100
Common mallow; [5]
  Plant response rating, Mallow: 100
Common mallow; [6]
  Plant response rating, Mallow: 90
Common mallow; [7]
  Plant response rating, Mallow: 80
Common sowthistle; [1]
  Plant response rating, Sowthistle: 100
Common sowthistle; [2]
  Plant response rating, Sowthistle: 100
Common sowthistle; [3]
  Plant response rating, Sowthistle: 60
Common sowthistle; [4]
  Plant response rating, Sowthistle: 100
Common sowthistle; [8]
  Plant response rating, Sowthistle: 100
Common sowthistle; [5]
  Plant response rating, Sowthistle: 100
Common sowthistle; [6]
  Plant response rating, Sowthistle: 90
Common sowthistle; [7]
  Plant response rating, Sowthistle: 90
Pitted morningglory; [1]
  Plant response rating, Morningglory: 90
Pitted morningglory; [2]
  Plant response rating, Morningglory: 80
Pitted morningglory; [3]
  Plant response rating, Morningglory: 30
Pitted morningglory; [4]
  Plant response rating, Morningglory: 100
Pitted morningglory; [8]
  Plant response rating, Morningglory: 100
Pitted morningglory; [5]
  Plant response rating, Morningglory: 100
Pitted morningglory; [6]
  Plant response rating, Morningglory: 65
Pitted morningglory; [7]
  Plant response rating, Morningglory: 10
bermudagrass; [1]
  Plant response rating, Bermudagrass: 98
bermudagrass; [2]
  Plant response rating, Bermudagrass: 95
bermudagrass; [3]
  Plant response rating, Bermudagrass: 95
bermudagrass; [4]
  Plant response rating, Bermudagrass: 100
bermudagrass; [8]
  Plant response rating, Bermudagrass: 100
bermudagrass; [5]
  Plant response rating, Bermudagrass: 100
bermudagrass; [6]
  Plant response rating, Bermudagrass: 95
bermudagrass; [7]
  Plant response rating, Bermudagrass: 65

## CCN1N=C(C(C)(C)C)CC1C(=O)Nc1cc(C(=O)N(C)C)ccc1F (stereo not shown) [Compound 268, N-[5-[(dimethylamino)carbonyl]-2-fluorophenyl]-3-(1,1-dimethylethyl)-1-ethyl-4,5-dihydro-1H-pyrazole-5-carboxamide]
Italian ryegrass; [9]
  Plant response rating, Ryegrass, Italian: 40
Italian ryegrass; [6]
  Plant response rating, Ryegrass, Italian: 30
Italian ryegrass; [7]
  Plant response rating, Ryegrass, Italian: 10
Surinam grass; [4]
  Plant response rating, Surinam Grass: 90
Surinam grass; [5]
  Plant response rating, Surinam Grass: 100
Winter barley; Postemergence, 125 g ai/ha, scale 0 to 100, 0 no effect, 100 complete control
  Plant response rating, Barley, Winter: 15
Winter barley; [9]
  Plant response rating, Barley, Winter: 30
Winter barley; [10]
  Plant response rating, Barley, Winter: 0
Winter barley; postemergence, 62 g ai/ha, scale 0 to 100 (0 no effect, 100 complete control)
  Plant response rating, Barley, Winter: 0
dallisgrass; [3]
  Plant response rating, Dallisgrass: 70
dallisgrass; [4]
  Plant response rating, Dallisgrass: 80
dallisgrass; [8]
  Plant response rating, Dallisgrass: 85
dallisgrass; [5]
  Plant response rating, Dallisgrass: 85
Green foxtail; [9]
  Plant response rating, Foxtail, Green: 50
Green foxtail; [6]
  Plant response rating, Foxtail, Green: 45
Green foxtail; [7]
  Plant response rating, Foxtail, Green: 40
Common ragweed; [3]
  Plant response rating, Ragweed: 50
Common ragweed; [4]
  Plant response rating, Ragweed: 60
Common ragweed; [8]
  Plant response rating, Ragweed: 100
Common ragweed; [5]
  Plant response rating, Ragweed: 100
Common mallow; [3]
  Plant response rating, Mallow: 50
Common mallow; [4]
  Plant response rating, Mallow: 50
Common mallow; [8]
  Plant response rating, Mallow: 80
Common mallow; [5]
  Plant response rating, Mallow: 90
Wild oat; [9]
  Plant response rating, Oat, Wild: 65
Wild oat; [6]
  Plant response rating, Oat, Wild: 35
Wild oat; [7]
  Plant response rating, Oat, Wild: 20
windgrass; [9]
  Plant response rating, Windgrass: 100
windgrass; [6]
  Plant response rating, Windgrass: 60
windgrass; [7]
  Plant response rating, Windgrass: 30
Common sowthistle; [3]
  Plant response rating, Sowthistle: 80
Common sowthistle; [4]
  Plant response rating, Sowthistle: 100
Common sowthistle; [8]
  Plant response rating, Sowthistle: 100
Common sowthistle; [5]
  Plant response rating, Sowthistle: 100
Pitted morningglory; [3]
  Plant response rating, Morningglory: 10
Pitted morningglory; [4]
  Plant response rating, Morningglory: 10
Pitted morningglory; [8]
  Plant response rating, Morningglory: 40
Pitted morningglory; [5]
  Plant response rating, Morningglory: 60
bermudagrass; [3]
  Plant response rating, Bermudagrass: 60
bermudagrass; [4]
  Plant response rating, Bermudagrass: 90
bermudagrass; [8]
  Plant response rating, Bermudagrass: 95
bermudagrass; [5]
  Plant response rating, Bermudagrass: 100
canarygrass; [9]
  Plant response rating, Canarygrass: 50
canarygrass; [6]
  Plant response rating, Canarygrass: 30
canarygrass; [10]
  Plant response rating, Canarygrass: 10
canarygrass; [7]
  Plant response rating, Canarygrass: 10
